Consider 1 compound from ChEMBL document CHEMBL3044761, “Lethal Activity of a Trehalase Inhibitor, Validoxylamine A, against Mamestra brassicae and Spodoptera litura” (J Pestic Sci, 1994).

For assay [1], the target named is T1, Vacuolar acid trehalase (Saccharomyces cerevisiae (strain ATCC 204508 / S288c) (Baker's yeast), UniProt P48016).
T1 sequence (P48016 whole entry): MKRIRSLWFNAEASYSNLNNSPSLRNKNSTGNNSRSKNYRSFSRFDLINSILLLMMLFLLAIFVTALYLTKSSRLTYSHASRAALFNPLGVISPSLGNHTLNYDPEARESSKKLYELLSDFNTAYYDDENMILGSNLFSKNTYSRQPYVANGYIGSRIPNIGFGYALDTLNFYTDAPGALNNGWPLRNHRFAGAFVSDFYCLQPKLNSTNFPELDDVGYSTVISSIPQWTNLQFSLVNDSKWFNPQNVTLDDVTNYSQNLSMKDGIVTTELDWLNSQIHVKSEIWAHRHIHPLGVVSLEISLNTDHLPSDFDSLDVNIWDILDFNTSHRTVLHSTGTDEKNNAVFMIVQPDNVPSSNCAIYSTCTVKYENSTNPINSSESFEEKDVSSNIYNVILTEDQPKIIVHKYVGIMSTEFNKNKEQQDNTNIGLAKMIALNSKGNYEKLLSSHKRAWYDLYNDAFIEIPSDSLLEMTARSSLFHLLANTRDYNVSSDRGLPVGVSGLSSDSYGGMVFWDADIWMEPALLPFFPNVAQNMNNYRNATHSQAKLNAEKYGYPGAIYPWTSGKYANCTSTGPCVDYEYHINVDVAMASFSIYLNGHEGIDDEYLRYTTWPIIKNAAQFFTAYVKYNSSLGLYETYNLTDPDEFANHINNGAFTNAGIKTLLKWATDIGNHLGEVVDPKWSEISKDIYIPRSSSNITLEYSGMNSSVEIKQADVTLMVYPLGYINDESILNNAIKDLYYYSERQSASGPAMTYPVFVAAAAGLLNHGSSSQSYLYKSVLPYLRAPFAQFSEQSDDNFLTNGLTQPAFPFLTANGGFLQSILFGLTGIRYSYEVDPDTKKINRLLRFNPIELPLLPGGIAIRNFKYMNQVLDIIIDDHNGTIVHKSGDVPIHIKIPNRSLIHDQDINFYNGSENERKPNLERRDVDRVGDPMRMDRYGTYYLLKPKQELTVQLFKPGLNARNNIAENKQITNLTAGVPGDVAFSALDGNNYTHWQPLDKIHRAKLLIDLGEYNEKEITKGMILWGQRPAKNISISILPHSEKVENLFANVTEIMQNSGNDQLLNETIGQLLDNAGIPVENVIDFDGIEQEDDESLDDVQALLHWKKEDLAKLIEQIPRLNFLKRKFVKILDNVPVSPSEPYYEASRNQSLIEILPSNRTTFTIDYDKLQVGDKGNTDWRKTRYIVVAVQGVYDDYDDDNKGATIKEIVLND
The assay is described as follows: Inhibition of Saccharomyces cerevisiae trehalase. The following applies: read-out: I50.

Assay [2] has as its system Spodoptera litura. As to the kind of experiment: Insecticidal activity against last-instar Spodoptera litura larvae assessed as mortality. In kind it is functional.
Assay [3] concerns Spodoptera litura. The assay is described as follows: Insecticidal activity against last-instar Spodoptera litura larvae assessed as larval pupal intermediate at 50 ug/larvae topical application (reference value: […]). In kind it is functional.
The subject of assay [4] is Spodoptera litura. As to the kind of experiment: Insecticidal activity against last-instar Spodoptera litura larvae assessed as wing pad separation injected at 2 ug/larvae (reference value: 100%). In kind it is functional.
In assay [5] the target is T2, Trehalase (Bombyx mori) (UniProt P32358).
T2 sequence (whole entry): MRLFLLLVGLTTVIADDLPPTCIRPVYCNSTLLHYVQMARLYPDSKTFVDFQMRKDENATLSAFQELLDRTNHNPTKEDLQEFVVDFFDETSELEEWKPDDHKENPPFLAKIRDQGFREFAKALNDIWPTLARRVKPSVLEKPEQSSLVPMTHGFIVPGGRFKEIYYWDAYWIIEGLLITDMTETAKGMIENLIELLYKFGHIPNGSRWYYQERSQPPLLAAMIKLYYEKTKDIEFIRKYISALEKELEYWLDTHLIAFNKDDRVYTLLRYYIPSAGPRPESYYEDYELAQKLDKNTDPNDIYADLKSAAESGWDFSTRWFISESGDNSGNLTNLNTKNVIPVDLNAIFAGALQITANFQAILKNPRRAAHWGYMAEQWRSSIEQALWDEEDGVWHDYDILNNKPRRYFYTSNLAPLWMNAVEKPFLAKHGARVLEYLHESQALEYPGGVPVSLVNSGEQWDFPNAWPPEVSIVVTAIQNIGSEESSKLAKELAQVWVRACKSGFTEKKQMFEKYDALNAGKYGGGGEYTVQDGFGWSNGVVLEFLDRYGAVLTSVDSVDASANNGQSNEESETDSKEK
The assay is described as follows: Inhibition of Bombyx mori trehalase activity in total ovaries at 10 ug/pupa. As to conditions: Female gonad.

The test system of assay [6] is Mamestra brassicae. As to the kind of experiment: Insecticidal activity against last-instar Mamestra brassicae larvae assessed as wing pad separation injected at 1 ug/larvae (reference value: 0%). It counts as functional.
Assay [7] relates to Mamestra brassicae. As to the kind of experiment: Insecticidal activity against last-instar Mamestra brassicae larvae assessed as normal pupae at 50 ug/larvae oral administration (reference value: 90%). It counts as functional.
The subject of assay [8] is Spodoptera litura. As to the kind of experiment: Insecticidal activity against last-instar Spodoptera litura larvae assessed as normal pupae injected at 10 ug/larvae (reference value: 100%). In kind it is functional.
For assay [9], the system named is Mamestra brassicae. As to the kind of experiment: Insecticidal activity against last-instar Mamestra brassicae larvae assessed as partial pupation at 50 ug/larvae oral administration (reference value: 10%). In kind it is functional.

As for `OCC1=C[C@H](N[C@H]2C[C@H](CO)[C@@H](O)[C@H](O)[C@H]2O)[C@H](O)[C@@H](O)[C@@H]1O` [VALIDOXYLAMINE A], in assay [1], the IC50 was 3 nM. Further, the LD50 in assay [2] was 2.42 µg. The Activity came to 5% in assay [3]; 5% in [4]; 20% in [6]; 90% in [7]; 20% in assay [8]; 0% in assay [9]. This compound also came in with an inhibition in [5] of 78%.
